Assay results as given in paper PMC10054454, “Phenotypic Discovery of Thiocarbohydrazone with Anticancer Properties and Catalytic Inhibition of Human DNA Topoisomerase IIα” (Pharmaceuticals, 2023).

How the values were obtained:
[1] = target: T1, human DNA topoisomerase IIα (Homo sapiens, UniProt P11388); assay: topo IIα-mediated kDNA decatenation and supercoiled pBR322 relaxation gel assays; HTS relaxation assay; cleavage assay (not a poison); type: biochemical
T1 construct: gene TOP2A

[2] = target: T1, human DNA topoisomerase IIα; assay: topo IIα cleavage assay (linear plasmid accumulation), HTS relaxation and decatenation assays; type: biochemical

T1 sequence (P11388 whole entry): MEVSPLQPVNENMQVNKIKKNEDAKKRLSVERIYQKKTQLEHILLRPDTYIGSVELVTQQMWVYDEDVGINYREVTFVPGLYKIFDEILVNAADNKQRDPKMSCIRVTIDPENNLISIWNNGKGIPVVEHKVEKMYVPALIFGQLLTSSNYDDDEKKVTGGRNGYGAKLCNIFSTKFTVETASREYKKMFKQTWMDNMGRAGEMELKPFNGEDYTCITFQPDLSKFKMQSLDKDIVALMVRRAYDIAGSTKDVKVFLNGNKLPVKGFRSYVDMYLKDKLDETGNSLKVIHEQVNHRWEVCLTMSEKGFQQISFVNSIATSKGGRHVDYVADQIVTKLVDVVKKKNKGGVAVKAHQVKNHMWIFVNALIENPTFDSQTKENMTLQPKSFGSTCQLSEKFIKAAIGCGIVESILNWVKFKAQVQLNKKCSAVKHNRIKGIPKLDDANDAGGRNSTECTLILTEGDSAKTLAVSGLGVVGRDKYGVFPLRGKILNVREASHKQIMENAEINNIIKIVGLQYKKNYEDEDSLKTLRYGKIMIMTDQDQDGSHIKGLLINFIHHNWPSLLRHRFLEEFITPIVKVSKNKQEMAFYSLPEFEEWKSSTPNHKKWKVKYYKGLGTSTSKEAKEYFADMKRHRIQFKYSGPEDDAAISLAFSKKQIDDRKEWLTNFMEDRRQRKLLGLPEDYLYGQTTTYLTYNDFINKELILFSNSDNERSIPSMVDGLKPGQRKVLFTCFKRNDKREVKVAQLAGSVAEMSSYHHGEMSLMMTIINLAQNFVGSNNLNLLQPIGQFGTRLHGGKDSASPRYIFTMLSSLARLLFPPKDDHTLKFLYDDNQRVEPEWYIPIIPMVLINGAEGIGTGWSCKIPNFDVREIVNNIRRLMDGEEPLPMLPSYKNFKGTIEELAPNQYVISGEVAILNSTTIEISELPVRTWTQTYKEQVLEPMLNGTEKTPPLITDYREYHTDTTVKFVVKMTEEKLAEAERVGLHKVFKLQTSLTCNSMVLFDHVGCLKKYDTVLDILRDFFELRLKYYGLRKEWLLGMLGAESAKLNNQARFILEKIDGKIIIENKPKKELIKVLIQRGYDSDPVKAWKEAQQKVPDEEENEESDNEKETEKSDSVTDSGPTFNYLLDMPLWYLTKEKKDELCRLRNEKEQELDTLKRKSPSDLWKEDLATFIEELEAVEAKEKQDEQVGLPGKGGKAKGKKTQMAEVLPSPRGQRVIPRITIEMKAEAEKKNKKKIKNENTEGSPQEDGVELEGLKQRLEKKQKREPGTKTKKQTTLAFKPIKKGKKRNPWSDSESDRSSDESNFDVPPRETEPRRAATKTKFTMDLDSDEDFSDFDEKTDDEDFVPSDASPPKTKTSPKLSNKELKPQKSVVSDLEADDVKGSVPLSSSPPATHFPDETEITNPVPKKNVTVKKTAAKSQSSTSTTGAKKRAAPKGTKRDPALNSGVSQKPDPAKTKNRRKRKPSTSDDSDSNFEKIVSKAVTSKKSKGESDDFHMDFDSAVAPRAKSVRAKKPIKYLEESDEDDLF

| Compound | inhibition at 50 µM [1] | inhibition at 50 µM [2] |
| --- | --- | --- |
| Oc1ccccc1C=NNC(=S)NN=Cc1ccccc1O [compound 2, 1,5-bis(salicylidene)thiocarbohydrazide] | 56% | – |
| COc1cc([C@@H]2c3cc4c(cc3[C@@H](O[C@@H]3O[C@@H]5CO[C@@H](C)O[C@H]5[C@H](O)[C@H]3O)[C@H]3COC(=O)[C@H]23)OCO4)cc(OC)c1O [etoposide] | – | 70% |
